From patent US20260000676A1, “CHROMAN DERIVATIVES AS ESTROGEN RECEPTOR DEGRADERS” (THE REGENTS OF THE UNIVERSITY OF MICHIGAN, priority 2022, published 2026)

Legend:
CRBN/DDB1 = CRBN/DDB1 (Homo sapiens (Human), UniProt Q96SW2); experiment: HTRF binding assay to CRBN/DDB1; conditions: read-out: CRBN HTRF IC50
Procedure: The binding potency was determined using HTRF assay technology (Perkin Elmer). Compounds were serially diluted in DMSO and 0.2 μL volume was transferred to white 384-well plate.

ER [1] = molecular target: T1, ER (Homo sapiens (Human), UniProt P03372); experiment: In-cell western (ICW) ER degradation assay in T47D cells; type: cell-based; conditions: 16 hrs; for DC50: ER degradation
T1 sequence (P03372 whole entry): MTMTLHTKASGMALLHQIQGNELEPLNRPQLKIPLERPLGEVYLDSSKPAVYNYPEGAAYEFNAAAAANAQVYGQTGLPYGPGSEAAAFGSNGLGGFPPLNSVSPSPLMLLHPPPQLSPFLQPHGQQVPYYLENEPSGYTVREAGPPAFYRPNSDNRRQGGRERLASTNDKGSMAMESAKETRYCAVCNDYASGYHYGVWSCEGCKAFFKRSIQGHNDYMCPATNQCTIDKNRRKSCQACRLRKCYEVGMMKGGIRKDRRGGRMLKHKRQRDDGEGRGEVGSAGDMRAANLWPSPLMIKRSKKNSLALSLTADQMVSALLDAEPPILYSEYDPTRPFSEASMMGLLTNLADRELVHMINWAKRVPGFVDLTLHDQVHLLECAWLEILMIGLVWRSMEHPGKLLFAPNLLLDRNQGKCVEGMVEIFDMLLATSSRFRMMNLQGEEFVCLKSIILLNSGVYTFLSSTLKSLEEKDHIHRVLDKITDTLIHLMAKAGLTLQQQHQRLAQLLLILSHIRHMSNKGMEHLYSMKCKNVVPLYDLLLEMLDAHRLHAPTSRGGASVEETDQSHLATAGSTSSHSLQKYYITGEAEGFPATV

ER [2] = molecular target: T1, ER; experiment: In-cell western (ICW) ER degradation assay in MCF-7 cells; type: cell-based; conditions: MCF7, 16 hrs; for DC50: ER degradation; for Dmax: MCF7, maximal ER degradation
ERα_LBD(GST) = ERα_LBD(GST) (Homo sapiens (Human), UniProt P03372); experiment: LanthaScreen TR-FRET ERα competitive binding assay; conditions: read-out: ERα HTRF IC50
Sequence of ERα_LBD(GST) (P03372 311-547): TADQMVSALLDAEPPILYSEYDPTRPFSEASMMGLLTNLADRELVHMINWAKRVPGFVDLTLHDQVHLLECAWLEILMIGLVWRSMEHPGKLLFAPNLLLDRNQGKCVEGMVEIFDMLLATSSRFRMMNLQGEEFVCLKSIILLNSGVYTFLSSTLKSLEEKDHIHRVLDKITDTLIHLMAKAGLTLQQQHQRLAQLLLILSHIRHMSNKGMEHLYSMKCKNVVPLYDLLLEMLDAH
Method in brief: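 GST-tagged ERα LBD (4 nM) with Tb anti-GST (2 nM) and Fluormone ES2 Green tracer (3 nM) in nuclear receptor buffer K plus 5 mM DTT, 1% DMSO; 3-fold compound dilutions, 60 min at room temperature in the dark. TR-FRET 520/495 nm ratio vs log[ligand], sigmoidal fit for IC50; 1 μM ARV_471 as full-inhibition control.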

MCF-7 cells = experiment: cells; conditions: Homo sapiens, MCF7, 144 h, read-out: MCF7 Proliferation IC50 (nM)
Procedure: (§1) In vitro assay can be accomplished by MCF-7 and T47D Cell Titer Glo (CTG) assay. MCF-7 and T47D cell (From HDB) are cultured in multi-well white plate with phenol red-free RPMI1640+10% CS-FBS+1% P/S medium (e.g., at 1,000 cells/well). On day 0: Cells are treated with compound at certain concentrations (e.g., 0.5 to 10000 nM) (DMSO and Staurosporine as control). On day 0 and day 6: add Cell Titer Glo reagent and read on EnVision after 30 min incubation for data generation.
(§2) • 1) Cell culture medium: phenol red-free RPMI1640+10% CS-FBS, 1% P/S
(§3) Day-1: MCF-7 and T47D cell (From HDB) were cultured in 384-well white plate with phenol red-free RPMI1640+10% CS-FBS+1% P/S medium (1,000 cells/well) for overnight at 37° C., 5% CO2 incubator.
(§4) Day 0: Cells were treated at desired compound concentrations (0.5 to 10000 nM) (DMSO and Staurosporine as control) for Day 6 at 37° C., 5% CO2 incubator.
(§5) Day 0 and Day 6: add Cell TiterGlo reagent and read on EnVision after 30 min incubation for data generation.

T47D cells = experiment: cells; conditions: Homo sapiens, 144 h, read-out: T47D Proliferation IC50 (nM)
Procedure: as §1, §2, §3, §4, §5

ER [3] = molecular target: T1, ER; experiment: In-cell western blot analysis (Compounds B1 to B5); type: cell-based; conditions: 16 hours; read-out: ICW DC50
Procedure: In-cell western blot analysis. Cells are seeded in multi-well plates (e.g., at 40,000 or 10,000 cells/well). Diluted compounds at certain concentration are added (final 0.5% DMSO) and cells are incubated for a certain period of time (e.g., 16 hours). Formaldehyde (e.g., PBS:FA=9:1) is added and followed by washing with PBS. The cells are blocked with Licor blocking buffer (Li-Cor). The relative ER percentage in treated cells were obtained by comparing the values of treated wells to those in untreated and DMSO-treated wells as 100%.
In-cell western blot analysis, a. seed cells in black-sided/clear bottom 96- or 384-well plates at 40,000 or 10,000 cells/well, overnight; b, add diluted compounds (final 0.5% DMSO), 16 hours. 16 h later, remove medium, add 100 μL or 25 µL of 3.7-4.0% formaldehyde (PBS: FA=9:1), RT 20 min, no shaking; c. wash with PBS, and permeabilized with 100 μL or 25 μL/well of 1×PBS+0.1% Triton X-100 10 minutes; d. block with 100 μL or 25 L Licor blocking buffer (Li-Cor), RT 1 h, moderate shaking; d. Add 100 μL or 25 μL of anti-ER (cs-8644, 1:500-1,000)+GAPDH (Millipore MAB374, 1:1000) in Block+0.05% Tween 20. RT 2 h, gentle shaking. Negative control: cells plus secondary antibodies (no primary antibodies); e. wash×4 with PBS+0.05-0.1% Tween 20, gentel shaking; f, anti-rabbit-680 and anti-mouse-800 (both 1:1000 in LiCor block+0.05% Tween20, RT 1 h, gentle shaking, no light. LI-COR: 0.2% to reduce background; g. wash×4 with PBS+0.05% Tween 20, gental shaking; h, add 100 μL or 25 μL of PBS to each well and read on CLX plate reader. The relative ER percentage in treated cells were obtained by comparing the values of treated wells to those in untreated and DMSO-treated wells as 100%.

T47D cell line = experiment: Cell growth assay (WST-8) in T47D cell line; type: cell-based; conditions: Homo sapiens, 96 h, WST-8, 4 days, read-out: Cell Growth Inhibition in T47D cell line IC50
Procedure: Cell Growth Assay. The cells are seeded at certain concentration (e.g., at 1500/well) in multi-well plates overnight. Cells are subsequently treated with the compounds. A certain period of time (e.g., 4 days) after the compound treatment, 10% WST-8 reagent is added to the culture medium and incubate under certain conduction (e.g., in a CO2 incubator at 37° C. for 2.5 hours). The absorbance is measured on each sample using a microplate reader at certain wavelength (e.g., 450 nm). The relative absorbance is calculated against the vehicle control from three individually repeats.
Cell Growth Assay. The cells were seeded at 1500/well in 96 well plates overnight. One day after the seeding, they were treated with indicated doses of compounds respectively. 4 days after the compound treatment, 10% WST-8 reagent was added to the culture medium and incubate in a CO2 incubator at 37° C. for 2.5 hours. Before reading, the plate was mixed gently on an orbital shaker for one minute to ensure homogeneous distribution of color. The absorbance was measured of each sample using a microplate reader at a wavelength of 450 nm. The relative absorbance was calculated against the vehicle control from three individually repeats.

Sequence of CRBN/DDB1 (Q96SW2 whole entry): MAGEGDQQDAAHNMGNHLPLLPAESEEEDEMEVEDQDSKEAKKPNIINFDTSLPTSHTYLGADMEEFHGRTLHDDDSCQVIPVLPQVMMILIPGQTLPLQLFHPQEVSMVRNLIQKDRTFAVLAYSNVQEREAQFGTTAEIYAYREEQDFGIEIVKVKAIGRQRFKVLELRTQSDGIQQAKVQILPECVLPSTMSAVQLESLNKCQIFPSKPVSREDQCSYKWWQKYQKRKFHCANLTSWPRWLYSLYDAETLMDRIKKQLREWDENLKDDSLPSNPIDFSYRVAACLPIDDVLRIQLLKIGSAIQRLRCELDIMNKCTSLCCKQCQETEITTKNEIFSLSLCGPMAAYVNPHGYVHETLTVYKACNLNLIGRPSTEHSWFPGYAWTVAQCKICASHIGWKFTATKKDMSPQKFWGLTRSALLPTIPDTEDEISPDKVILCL
Sequence of CRBN/DDB1 (Q16531 whole entry partner): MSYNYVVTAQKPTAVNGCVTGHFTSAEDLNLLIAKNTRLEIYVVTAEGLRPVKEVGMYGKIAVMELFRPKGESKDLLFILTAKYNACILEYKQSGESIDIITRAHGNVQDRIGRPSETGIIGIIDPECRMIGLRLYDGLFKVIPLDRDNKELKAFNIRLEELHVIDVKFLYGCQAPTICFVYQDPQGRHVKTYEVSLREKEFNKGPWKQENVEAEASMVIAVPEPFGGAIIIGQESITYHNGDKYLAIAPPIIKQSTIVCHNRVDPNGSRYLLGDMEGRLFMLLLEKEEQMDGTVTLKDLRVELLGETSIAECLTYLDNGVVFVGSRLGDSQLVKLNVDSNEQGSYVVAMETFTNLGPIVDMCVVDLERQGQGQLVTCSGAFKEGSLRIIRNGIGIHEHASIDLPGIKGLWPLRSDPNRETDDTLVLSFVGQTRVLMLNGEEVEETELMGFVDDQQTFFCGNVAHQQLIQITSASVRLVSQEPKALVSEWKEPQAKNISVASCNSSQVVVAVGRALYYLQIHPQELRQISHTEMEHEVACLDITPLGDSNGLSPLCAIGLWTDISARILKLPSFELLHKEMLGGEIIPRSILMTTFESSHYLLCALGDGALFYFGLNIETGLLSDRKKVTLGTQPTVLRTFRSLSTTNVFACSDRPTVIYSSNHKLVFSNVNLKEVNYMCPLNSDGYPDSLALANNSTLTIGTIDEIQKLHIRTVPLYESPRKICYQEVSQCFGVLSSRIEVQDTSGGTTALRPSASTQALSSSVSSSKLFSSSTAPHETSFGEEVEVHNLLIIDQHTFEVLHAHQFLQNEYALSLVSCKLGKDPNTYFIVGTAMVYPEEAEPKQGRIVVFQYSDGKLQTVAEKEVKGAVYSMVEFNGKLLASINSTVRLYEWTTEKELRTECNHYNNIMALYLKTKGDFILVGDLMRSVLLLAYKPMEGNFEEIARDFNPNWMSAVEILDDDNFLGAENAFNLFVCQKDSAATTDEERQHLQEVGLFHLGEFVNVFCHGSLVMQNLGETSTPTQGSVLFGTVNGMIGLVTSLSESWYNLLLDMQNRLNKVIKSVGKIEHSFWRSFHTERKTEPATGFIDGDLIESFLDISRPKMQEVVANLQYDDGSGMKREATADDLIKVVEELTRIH

Structure (SMILES) | IC50 (CRBN/DDB1) [µM] | DC50 (ER [1]) [µM] | T47D Dmax % (ER [1]; maximal ER degradation) | DC50 (ER [2]) [µM] | MCF7 Dmax % (ER [2]; maximal ER degradation) | IC50 (ERα_LBD(GST)) [µM] | IC50 (MCF-7 cells) [nM] | IC50 (T47D cells) [nM] | Dmax (ER [1]; maximal ER degradation) [%] | Dmax (ER [2]) [%] | DC50 (ER [3]) [µM] | IC50 (T47D cell line) [µM]
O=C1CCC(N2Cc3cc4c(cc3C2=O)OC[C@@H]2CN(CC3CCC5(CC3)CN(c3ccc([C@@H]6c7ccc(O)cc7OC[C@@H]6c6ccccc6)cc3)C5)CCN42)C(=O)N1 (single isomer, unassigned) [Compound A58] | 0.5 to 5 | 0.001 to 0.01 | B (“B”: >50% and <75%) | 0.001 to 0.01 | C (“C”: 25%-50%) | < 0.005 | 50 to 500 | 50 to 500 |  |  |  | 
O=C1CC[C@H](N2Cc3c(ccc4c3OC[C@H]3CN(CC5CC6(CCN(c7ccc([C@H]8c9ccc(O)cc9OC[C@H]8c8ccccc8)cc7)CC6)C5)CCN43)C2=O)C(=O)N1 (single isomer, unassigned) [Compound A50] | 0.05 to 0.5 | < 0.001 |  | 0.001 to 0.01 |  | < 0.005 | 50 to 500 | 50 to 500 | 50 to 75 | 50 to 75 |  | 
O=C1CC[C@@H](N2Cc3cc4c(cc3C2=O)OCC2CN(CC3CCC5(CC3)CN(c3ccc([C@H]6c7ccc(O)cc7OC[C@H]6c6ccccc6)cc3)C5)CCN42)C(=O)N1 (stereo in doubt) [Compound A120, (R)-3-((R)-3-((2-(4-((3R,4S)-7-hydroxy-3-phenylchroman-4-yl)phenyl)-2-azaspiro[3.5]nonan-7-yl)methyl)-8-oxo-1,2,3,4,4a, 5,8,10-octahydro-9H-pyrazino[1′,2′:4,5][1,4]oxazino[2,3-f]isoindol-9-yl)piperidine-2,6-dione] |  | < 0.001 |  | 0.001 to 0.01 |  | < 0.005 | 50 to 500 | 50 to 500 | ≥ 75 | ≥ 75 |  | 
O=C1CC[C@@H](N2Cc3cc4c(cc3C2=O)OC[C@H]2CN(CC3CCC5(CC3)CN(c3ccc([C@H]6c7ccc(O)cc7OC[C@H]6c6ccccc6)cc3)C5)CCN42)C(=O)N1 (single isomer, unassigned) [Compound A118] |  | 0.001 to 0.01 |  | 0.001 to 0.01 |  | < 0.005 | 50 to 500 | 50 to 500 | ≥ 75 | ≥ 75 |  | 
COc1cc(C(=O)NC2CCC(=O)NC2=O)ncc1N1CCN(CC2CCC3(CC2)CN(c2ccc([C@H]4c5ccc(O)cc5OC[C@H]4c4ccccc4)cc2)C3)CC1 (mixture of isomers) [Compound A117, N-(2,6-dioxopiperidin-3-yl)-5-(4-((2-(4-((3R,4S)-7-hydroxy-3-phenylchroman-4-yl)phenyl)-2-azaspiro[3.5]nonan-7-yl)methyl)piperazin-1-yl)-4-methoxypicolinamide] | 0.5 to 5 | < 0.001 |  | < 0.001 |  | < 0.005 | < 50 | < 50 | ≥ 75 | ≥ 75 |  | 
O=C1CC[C@@H](N2Cc3cc4c(cc3C2=O)OC[C@H]2CN(CC3COC5(CCN(c6ccc([C@H]7c8ccc(O)cc8OC[C@H]7c7ccccc7)cc6)CC5)C3)CCN42)C(=O)N1 (stereo partly drawn) [Compound A138, (3R)-3-((4aR)-3-((8-(4-((3R,4S)-7-hydroxy-3-phenylchroman-4-yl)phenyl)-1-oxa-8-azaspiro[4.5]decan-3-yl)methyl)-8-oxo-1,2,3,4,4a,5,8,10-octahydro-9H-pyrazino[1′,2′:4,5][1,4]oxazino[2,3-f]isoindol-9-yl)piperidine-2,6-dione] | 0.05 to 0.5 | < 0.001 |  | < 0.001 |  | < 0.005 | < 50 | < 50 | 50 to 75 | ≥ 75 |  | 
O=C1CCC(N2Cc3c(ccc4c3OC[C@H]3CN(CC5CCN(c6ccc(C7c8ccc(O)cc8OCC7c7ccccc7)cc6)CC5)CCN43)C2=O)C(=O)N1 (stereo partly drawn) [Compound B1, 3-((5aR)-7-((1-(4-(7-hydroxy-3-phenylchroman-4-yl)phenyl)piperidin-4-yl)methyl)-1-oxo-1,3,5,5a,6,7,8,9-octahydro-2H-pyrazino[1′,2′:4,5][1,4]oxazino[2,3-e]isoindol-2-yl) piperidine-2,6-dione] |  |  |  |  |  |  |  |  |  |  | > 0.1 | > 0.01
O=C1CC[C@H](N2Cc3c(ccc4c3OC[C@H]3CN(CC5CCC6(CC5)CN(c5ccc([C@@H]7c8ccc(O)cc8OC[C@@H]7c7ccccc7)cc5)C6)CCN43)C2=O)C(=O)N1 (single isomer, unassigned) [Compound A115] | 0.05 to 0.5 | < 0.001 |  | < 0.001 |  | < 0.005 | 50 to 500 | 50 to 500 | ≥ 75 | ≥ 75 |  | 
O=C1CC[C@@H](N2Cc3c(ccc4c3OCC43CCN(CC4CCC5(CC4)CN(c4ccc([C@H]6c7ccc(O)cc7OC[C@H]6c6ccccc6)cc4)C5)CC3)C2=O)C(=O)N1 [Compound A154, (R)-3-(1′-((2-(4-((3R,4S)-7-hydroxy-3-phenylchroman-4-yl)phenyl)-2-azaspiro[3.5]nonan-7-yl)methyl)-6-oxo-6,8-dihydro-2H,7H-spiro[furo[2,3-e]isoindole-3,4′-piperidin]-7-yl)piperidine-2,6-dione] | < 0.05 | < 0.001 |  | < 0.001 |  | < 0.005 | < 50 | < 50 | ≥ 75 | 50 to 75 |  | 
COc1cc(N2CCC(CN3CCC(c4ccc(N[C@@H]5CCC(=O)NC5=O)cc4)CC3)CC2)ccc1[C@@H]1c2ccc(O)cc2OC[C@@H]1c1ccccc1 [Compound A150, (R)-3-((4-(1-((1-(4-((3S,4R)-7-hydroxy-3-phenylchroman-4-yl)-3-methoxyphenyl)piperidin-4-yl)methyl)piperidin-4-yl)phenyl)amino)piperidine-2,6-dione] |  | < 0.001 |  | < 0.001 |  | < 0.005 | 50 to 500 | 50 to 500 | 25 to 50 | 25 to 50 |  | 
O=C1CCC(N2Cc3cc(N4CCN(CC5CCN(c6ccc([C@@H]7c8ccc(O)cc8OC[C@@H]7c7ccccc7)cc6)CC5)CC4)ccc3C2=O)C(=O)N1 (single isomer, unassigned) [Compound A62] | 0.05 to 0.5 | < 0.001 |  | < 0.001 |  | < 0.005 | < 50 | < 50 | 50 to 75 | 50 to 75 |  | 
O=C1CC[C@@H](N2Cc3cc4c(cc3C2=O)OC[C@H]2CN(CC3CC5(CCN(c6ccc([C@@H]7c8ccc(O)cc8OC[C@@H]7c7ccccc7)cc6)CC5)C3)CCN42)C(=O)N1 [Compound A95, (R)-3-((R)-3-((7-(4-((3S,4R)-7-hydroxy-3-phenylchroman-4-yl)phenyl)-7-azaspiro[3.5]nonan-2-yl)methyl)-8-oxo-1,2,3,4,4a,5,8,10-octahydro-9H-pyrazino[1′,2′:4,5][1,4]oxazino[2,3-f]isoindol-9-yl)piperidine-2,6-dione] | 0.5 to 5 | 0.001 to 0.01 |  | 0.001 to 0.01 |  |  | 50 to 500 | < 50 | 50 to 75 | 50 to 75 |  | 
